Reference: patent US20110230566A1, “PERFLUOROCARBON EYE CREAM FORMULATIONS” (priority 2010, published 2011)

Key:
[1] = Physical properties of perfluoro(tert-butylcyclohexane); type: physicochemical
Text: Physical properties of perfluoro(tert-butylcyclohexane) are as follows:
Oxycyte® is a perfluorocarbon emulsion oxygen carrier. The active ingredient in Oxycyte®, perfluoro(tert-butylcyclohexane) (C10F20, MW˜500), also known as F-tert-butylcyclohexane or “FtBu”, is a saturated alicyclic PFC. […] Oxycyte® can be used in the PFC compositions, methods and uses described herein.
Being that the PFCs are slightly lipophilic at body temperature and would help in the transport of oxygen into and removal of carbon dioxide from, e.g., periocular skin.

[2] = Oxygen and CO2 carrying capacity of the PFC; type: physicochemical; details: at body temperature
Method: Perfluoro(tert-butylcyclohexane) can carry about 43 mL of oxygen per 100 mL of PFC, and 196 mL of CO2 per 100 mL of PFC at body temperature.

Density [1]: 1.97 g/mL
Kinematic Viscosity [1]: 5.378 cP
water solubility [1]: non-water soluble
Vapor Pressure ([1]; @ 25° C.): 3.8 mmHg
Vapor Pressure ([1]; @ 37° C.): 4.4 mmHg
lipophilicity ([1]; at body temperature): only slightly lipophilic
lipophilicity ([1]; at room temperature): not lipophilic
lipophilicity ([1]; temperature not stated): non-lipophilic
CO2 carried [2]: ~196 mL of CO2 per 100 mL of PFC
oxygen carried [2]: about 43 mL of oxygen per 100 mL of PFC
SMILES: FC(F)(F)C(C(F)(F)F)(C(F)(F)F)C1(F)C(F)(F)C(F)(F)C(F)(F)C(F)(F)C1(F)F [perfluoro(tert-butylcyclohexane)]
